Tests used:
[1] = molecular target: T1, GIRK1/GIRK2 channels (AtT20 cells) (Mus musculus, UniProt P48542+P63250); test: GIRK channel fluorescent plate reader assay; assay type: cell-based
T1 sequence (P63250 1-501): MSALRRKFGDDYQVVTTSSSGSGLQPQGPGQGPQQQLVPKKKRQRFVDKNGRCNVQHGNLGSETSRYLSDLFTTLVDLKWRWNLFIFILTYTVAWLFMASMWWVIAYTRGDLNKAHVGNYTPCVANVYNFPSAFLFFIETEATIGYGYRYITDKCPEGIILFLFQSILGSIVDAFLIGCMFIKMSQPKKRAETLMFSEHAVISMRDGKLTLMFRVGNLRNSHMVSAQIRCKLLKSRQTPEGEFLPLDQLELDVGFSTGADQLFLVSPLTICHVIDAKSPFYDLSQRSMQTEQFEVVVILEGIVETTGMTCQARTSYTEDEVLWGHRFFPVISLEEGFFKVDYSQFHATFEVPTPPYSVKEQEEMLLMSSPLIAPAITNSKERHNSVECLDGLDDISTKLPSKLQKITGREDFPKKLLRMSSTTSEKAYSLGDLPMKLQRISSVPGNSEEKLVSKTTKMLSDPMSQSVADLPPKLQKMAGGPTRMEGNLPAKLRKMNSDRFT
T1 sequence (P48542 1-425): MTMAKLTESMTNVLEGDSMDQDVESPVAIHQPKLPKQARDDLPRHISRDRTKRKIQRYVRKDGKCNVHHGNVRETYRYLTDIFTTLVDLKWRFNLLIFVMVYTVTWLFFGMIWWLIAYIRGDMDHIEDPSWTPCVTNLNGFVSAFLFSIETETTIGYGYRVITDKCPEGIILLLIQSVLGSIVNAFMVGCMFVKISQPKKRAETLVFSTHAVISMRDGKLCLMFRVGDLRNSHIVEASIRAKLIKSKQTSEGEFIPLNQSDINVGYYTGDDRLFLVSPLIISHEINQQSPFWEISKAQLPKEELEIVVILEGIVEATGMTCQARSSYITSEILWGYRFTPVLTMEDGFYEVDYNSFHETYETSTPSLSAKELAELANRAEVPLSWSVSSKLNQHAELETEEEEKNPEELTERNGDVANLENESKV

GIRK1/GIRK4 channels = details: ref Hashimoto et al., [2008]; Machida et al., [2011]; cited from earlier work
atrial fibrillation = details: ref Hashimoto et al., [2008]; Machida et al., [2011]; cited from earlier work
[2] = molecular target: T2, GIRK1/GIRK4 channel (cardiac HL-1 cells) (Mus musculus, UniProt P48545+P63250); test: GIRK channel fluorescent plate reader assay; assay type: cell-based
T2 sequence (P63250 1-501): T1 sequence (P63250 1-501)
T2 sequence (P48545 1-419): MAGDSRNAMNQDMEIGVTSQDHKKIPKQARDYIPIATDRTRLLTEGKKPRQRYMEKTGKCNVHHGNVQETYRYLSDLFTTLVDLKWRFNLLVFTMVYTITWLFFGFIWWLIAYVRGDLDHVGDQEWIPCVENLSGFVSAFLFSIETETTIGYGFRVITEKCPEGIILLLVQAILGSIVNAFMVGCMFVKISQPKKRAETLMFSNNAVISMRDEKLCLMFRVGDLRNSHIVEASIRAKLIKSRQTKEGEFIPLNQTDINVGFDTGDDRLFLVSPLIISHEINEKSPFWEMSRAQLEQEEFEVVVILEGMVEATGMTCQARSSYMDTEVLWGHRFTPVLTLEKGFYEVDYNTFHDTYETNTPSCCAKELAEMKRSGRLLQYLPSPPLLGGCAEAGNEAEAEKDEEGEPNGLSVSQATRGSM

[Ba+2].[Cl-].[Cl-] [BaCl2]
reduction of the somatostatin-mediated fluorescent change ([1]; 0.5 mM, AtT20 cells, n = 6 wells): 67 ± 4%
reduction of the somatostatin-mediated fluorescent change ([1]; 1 mM, AtT20 cells, n = 6 wells): 92 ± 2%
inhibition of the somatostatin-mediated fluorescent change ([1]; 2 mM, 5 min pretreatment, AtT20 cells): complete inhibition

[Cl-].[K+] [KCl]
fluorescent change (F/FO) ([1]; 10 mM KCl, depolarization, AtT20 cells): 0.058
fluorescent change (F/FO) ([1]; 20 mM KCl, depolarization, AtT20 cells): 0.13
fluorescent change (F/FO) ([1]; 30 mM KCl, depolarization, AtT20 cells): 0.15

Cc1cc(CO)nc2cc3c(cc12)OC(C)(C)[C@H](O)[C@H]3NCCc1ccccc1 [NTC-801]
concentration range of GIRK1/GIRK4 channel block (GIRK1/GIRK4 channels): nanomolar concentrations
effect in canine model of atrial fibrillation (atrial fibrillation): converted AF to sinus rhythm

Cc1nc2c(OCc3ccccc3)cccn2c1CC#N [SCH-28080, 2-methyl-8-(phenylmethoxy)imidazo[1,2-A]pyridine-3-acetonitrile]
IC50 [2]: 300 nM
IC50 [1]: 200 nM

Nc1ncnc2c1ncn2[C@@H]1O[C@H](CO)[C@@H](O)[C@H]1O [adenosine]
change in the fluorescent signal ([1]; 10 μM, AtT20 cells): no change

N=C(N)NC(=O)c1nc(Cl)c(N)nc1N [amiloride]
GIRK channel blocking effect ([1]; tested up to 10 μM, AtT20 and HL-1 cells screened, cell line not specified): no blocking effect

C[N+](C)(C)CCOC(N)=O [carbachol]
EC50 [1]: 1000 nM
peak fluorescent change ([1]; AtT20 cells, n = 6 wells): −0.037

COc1ccc2[nH]c([S+]([O-])Cc3ncc(C)c(OC)c3C)nc2c1 (stereo not shown) [omeprazole]
change in GPCR-sensitive fluorescence during treatment ([1]; cell line not specified (AtT20 / HL-1), Figure 5): no change in fluorescence

C[C@H](N)C(=O)NCC(=O)N[C@H]1CSSC[C@@H](C(=O)O)NC(=O)[C@H](CO)NC(=O)[C@H]([C@@H](C)O)NC(=O)[C@H](Cc2ccccc2)NC(=O)[C@H]([C@@H](C)O)NC(=O)[C@H](CCCCN)NC(=O)[C@H](Cc2c[nH]c3ccccc23)NC(=O)[C@H](Cc2ccccc2)NC(=O)[C@H](Cc2ccccc2)NC(=O)[C@H](CC(N)=O)NC(=O)[C@H](CCCCN)NC1=O [somatostatin]
fluorescent change (F/FO) ([1]; 200 nM, AtT20 cells, n = 6 wells): −0.088
